Type in all cases: cell-based
The target in one assay is AXL (Homo sapiens (Human), UniProt P30530). Put plainly: AXL autophosphorylation ELISA in A-172 cells. As to conditions: cellular, Gas6-stimulated, phospho-AXL ELISA. An outline of the steps:
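A-172 glioblastoma cells, serum-starved 24 h, got 8-point compound dilutions (0.3% DMSO) for 1 h, then 1 μg/mL human Gas6 for 15 min. Phospho-AXL in lysates was quantified by ELISA against a standard, normalized between DMSO and reference-inhibitor controls; IC50 by 4-parameter logistic fit.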
In general terms: An ELISA detects its analyte on a solid surface through an enzyme-linked reagent.

For the next assay, the target named is Mer (Homo sapiens (Human), UniProt Q12866). In words: Mer autophosphorylation ELISA in transient transfected 293A cells. To be noted: cellular, MERTK-transfected 293A cells, phospho-Mer ELISA. On the procedure:
293A cells (Thermo Fisher #R70507) were seeded at 1.5×10^6 cells/well onto 100 mm dish (Greiner #664169), in DMEM (Thermo Fisher #11995-040) containing 10% FBS (Thermo Fisher #26140-079), 1% MEM NEAA (Thermo Fisher #11140-050), 1% GlutaMax (Thermo Fisher #35050-061), and 1% Penicillin Streptomycin (Thermo Fisher #15140-122). 293A cells were incubated at 37° C., 5% CO2 for 24 h and then transfected with 6 μg MERTK DNA (Genecopoeia #EX-Z8208-M02) using TransIT LT1 transfection reagent (Mirus-Bio #MIR2305). After 24 h incubation, the transfected 293A cells were seeded at 1×10^5 cells/well onto 96-well plates (Corning #3904) in DMEM growth medium overnight. Test compounds were serially diluted to produce an 8-point dose curve in fresh serum-free medium to a final concentration of 0.3% DMSO (vehicle) and added to the cells and incubated for 1 h. Cells were then immediately lysed with 150 μL of cold IX lysis buffer [20 mM Tris, 137 mM sodium chloride, 2 mM EDTA, 10% glycerol, 1% NP-40 alternative, 1 mM activated sodium orthovanadate, 1 mM PefaBloc SC (Sigma-Aldrich #11429868001), protease/phosphatase inhibitor tablet (Thermo Fisher #A32959)]. Lysates were clarified by centrifugation and 50 μL/well added into the human phospho-Mer DuoSet IC ELISA (R&D Systems #DYC2579-2). Assay was performed according to manufacturer's instructions and sample phospho-Mer concentrations were extrapolated using human phospho-Mer control (R&D Systems #841793) as a standard. Positive control wells (100% activity) contained DMSO-treated cell lysates. Negative control wells (0% activity) contained reference inhibitor-treated cell lysates. IC50 values were calculated by nonlinear regression analysis using a 4-parameter logistic curve fit in ActivityBase XE (IDBS).

For another assay, the target named is KDR (Homo sapiens (Human), UniProt P35968). Put plainly: KDR autophosphorylation ELISA in HUVEC cells. To be noted: cellular, VEGF165-stimulated, phospho-KDR ELISA. An outline of the steps: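 Serum-starved (24 h) HUVECs were pre-treated with compound (8-point dose curve, 0.3% DMSO final) for 1 h, then stimulated with 100 ng/mL human VEGF165 for 5 min. Lysate phospho-KDR was quantified by ELISA against a phospho-KDR standard. IC50 came from a 4-parameter logistic fit, normalized to stimulated-DMSO (100%) and unstimulated (0%) controls.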
Chain of KDR (P35968 20-1356): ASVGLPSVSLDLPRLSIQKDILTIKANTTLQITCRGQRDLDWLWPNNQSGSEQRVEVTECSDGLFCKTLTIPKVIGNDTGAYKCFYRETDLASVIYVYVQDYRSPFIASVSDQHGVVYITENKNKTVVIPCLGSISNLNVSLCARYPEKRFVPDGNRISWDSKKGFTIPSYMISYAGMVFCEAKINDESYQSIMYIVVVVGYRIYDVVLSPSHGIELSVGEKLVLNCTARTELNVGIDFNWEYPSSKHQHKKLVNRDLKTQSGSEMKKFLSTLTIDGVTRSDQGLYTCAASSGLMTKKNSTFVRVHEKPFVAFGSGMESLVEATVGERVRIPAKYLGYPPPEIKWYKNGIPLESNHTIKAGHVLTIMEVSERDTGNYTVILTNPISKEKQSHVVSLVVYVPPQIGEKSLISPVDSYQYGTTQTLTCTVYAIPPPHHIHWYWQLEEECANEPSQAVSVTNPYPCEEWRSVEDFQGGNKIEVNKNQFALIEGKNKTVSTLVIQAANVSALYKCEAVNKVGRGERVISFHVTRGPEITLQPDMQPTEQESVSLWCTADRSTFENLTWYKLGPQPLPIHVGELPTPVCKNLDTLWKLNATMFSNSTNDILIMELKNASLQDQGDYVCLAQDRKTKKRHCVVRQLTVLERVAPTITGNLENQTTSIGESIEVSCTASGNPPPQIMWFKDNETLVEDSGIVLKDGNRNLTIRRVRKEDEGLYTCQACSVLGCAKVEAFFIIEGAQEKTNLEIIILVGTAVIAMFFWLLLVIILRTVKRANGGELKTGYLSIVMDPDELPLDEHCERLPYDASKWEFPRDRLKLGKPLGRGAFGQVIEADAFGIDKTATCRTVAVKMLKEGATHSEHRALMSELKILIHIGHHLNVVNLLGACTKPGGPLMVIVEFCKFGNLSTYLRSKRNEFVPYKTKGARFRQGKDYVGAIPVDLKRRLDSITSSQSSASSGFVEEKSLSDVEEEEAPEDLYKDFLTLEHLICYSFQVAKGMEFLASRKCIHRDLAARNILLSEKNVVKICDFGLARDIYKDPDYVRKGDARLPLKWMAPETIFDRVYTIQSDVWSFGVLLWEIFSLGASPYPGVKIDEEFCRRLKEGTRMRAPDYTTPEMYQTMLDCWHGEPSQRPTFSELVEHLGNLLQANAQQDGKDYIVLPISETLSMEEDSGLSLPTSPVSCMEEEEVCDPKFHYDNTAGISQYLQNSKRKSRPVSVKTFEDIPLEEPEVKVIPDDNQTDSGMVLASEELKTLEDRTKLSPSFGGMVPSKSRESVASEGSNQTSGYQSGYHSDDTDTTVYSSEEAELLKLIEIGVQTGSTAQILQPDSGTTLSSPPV

The next assay addresses Met (Homo sapiens (Human), UniProt P08581). Put plainly: Met autophosphorylation ELISA in PC-3 cells. To be noted: cellular, HGF-stimulated, phospho-Met ELISA, read-out: c-Met IC50. An outline of the steps:
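Serum-starved PC-3 cells treated 1 h with compound (8-point series, 0.3% DMSO), then stimulated 10 min with 100 ng/mL HGF. Phospho-Met (panTyr) quantified in lysates by sandwich ELISA; IC50 from 4-parameter logistic fit against DMSO and reference-inhibitor controls.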

One may read the IC50 as the concentration that inhibits the measured activity by half.

Bounds are passed on as bounds.

Chain of Met (P08581 25-1390): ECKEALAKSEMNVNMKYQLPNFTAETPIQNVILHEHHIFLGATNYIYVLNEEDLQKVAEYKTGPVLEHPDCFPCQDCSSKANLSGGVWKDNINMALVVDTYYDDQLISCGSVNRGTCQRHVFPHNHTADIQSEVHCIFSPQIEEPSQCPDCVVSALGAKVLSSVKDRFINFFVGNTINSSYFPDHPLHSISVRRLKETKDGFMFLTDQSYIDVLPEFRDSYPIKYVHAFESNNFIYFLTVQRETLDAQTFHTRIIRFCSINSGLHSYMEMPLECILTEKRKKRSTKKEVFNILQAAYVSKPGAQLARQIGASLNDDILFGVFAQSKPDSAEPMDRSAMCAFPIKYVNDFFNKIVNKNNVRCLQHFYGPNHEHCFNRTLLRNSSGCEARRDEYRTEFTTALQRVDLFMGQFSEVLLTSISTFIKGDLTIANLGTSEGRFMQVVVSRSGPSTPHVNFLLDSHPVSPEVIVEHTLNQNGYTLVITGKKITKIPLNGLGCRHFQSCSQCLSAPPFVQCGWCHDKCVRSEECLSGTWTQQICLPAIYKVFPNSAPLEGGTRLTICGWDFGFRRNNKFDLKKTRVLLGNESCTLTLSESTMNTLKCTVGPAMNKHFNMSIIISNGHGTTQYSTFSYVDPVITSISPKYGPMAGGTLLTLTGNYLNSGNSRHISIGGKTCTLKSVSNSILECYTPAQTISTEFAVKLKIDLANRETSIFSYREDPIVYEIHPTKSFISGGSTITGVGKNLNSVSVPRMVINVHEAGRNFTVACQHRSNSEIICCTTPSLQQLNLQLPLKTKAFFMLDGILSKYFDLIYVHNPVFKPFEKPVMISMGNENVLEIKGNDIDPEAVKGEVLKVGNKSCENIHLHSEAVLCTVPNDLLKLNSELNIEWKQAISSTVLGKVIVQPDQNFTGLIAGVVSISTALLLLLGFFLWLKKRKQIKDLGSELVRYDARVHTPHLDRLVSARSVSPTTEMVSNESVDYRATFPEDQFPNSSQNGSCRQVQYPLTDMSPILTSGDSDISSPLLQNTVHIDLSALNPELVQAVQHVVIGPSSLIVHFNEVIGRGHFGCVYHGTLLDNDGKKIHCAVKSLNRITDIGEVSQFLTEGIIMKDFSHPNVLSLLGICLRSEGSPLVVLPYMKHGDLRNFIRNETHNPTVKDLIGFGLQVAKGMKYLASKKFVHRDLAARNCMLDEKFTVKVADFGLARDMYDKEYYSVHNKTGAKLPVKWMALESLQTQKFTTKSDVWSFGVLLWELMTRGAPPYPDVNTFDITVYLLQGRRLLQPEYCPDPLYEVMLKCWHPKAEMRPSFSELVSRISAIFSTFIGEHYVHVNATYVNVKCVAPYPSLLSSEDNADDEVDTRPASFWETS
Chain of AXL (P30530 26-894): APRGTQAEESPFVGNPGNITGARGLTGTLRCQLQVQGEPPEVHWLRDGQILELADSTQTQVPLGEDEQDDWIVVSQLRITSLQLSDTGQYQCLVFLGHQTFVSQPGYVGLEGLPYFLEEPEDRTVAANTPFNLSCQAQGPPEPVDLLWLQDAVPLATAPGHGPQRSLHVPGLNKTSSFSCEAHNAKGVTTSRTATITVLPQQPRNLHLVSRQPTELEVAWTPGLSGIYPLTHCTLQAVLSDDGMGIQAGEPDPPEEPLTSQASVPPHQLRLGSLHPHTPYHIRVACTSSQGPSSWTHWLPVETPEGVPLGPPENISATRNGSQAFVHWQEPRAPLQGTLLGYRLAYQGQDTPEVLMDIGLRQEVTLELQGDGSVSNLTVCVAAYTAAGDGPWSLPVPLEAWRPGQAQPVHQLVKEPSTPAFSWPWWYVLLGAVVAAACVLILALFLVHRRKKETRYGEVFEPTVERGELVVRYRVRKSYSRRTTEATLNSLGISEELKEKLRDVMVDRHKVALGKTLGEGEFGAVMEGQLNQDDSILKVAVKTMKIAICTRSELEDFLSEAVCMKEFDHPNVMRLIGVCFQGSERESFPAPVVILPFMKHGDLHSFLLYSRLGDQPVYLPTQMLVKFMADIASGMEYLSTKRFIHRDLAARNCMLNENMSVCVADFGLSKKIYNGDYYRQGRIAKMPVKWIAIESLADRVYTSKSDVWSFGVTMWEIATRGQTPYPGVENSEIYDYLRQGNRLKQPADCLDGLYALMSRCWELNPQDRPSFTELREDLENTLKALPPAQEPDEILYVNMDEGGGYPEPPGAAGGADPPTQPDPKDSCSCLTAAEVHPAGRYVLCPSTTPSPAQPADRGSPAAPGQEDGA
Chain of Mer (Q12866 21-999): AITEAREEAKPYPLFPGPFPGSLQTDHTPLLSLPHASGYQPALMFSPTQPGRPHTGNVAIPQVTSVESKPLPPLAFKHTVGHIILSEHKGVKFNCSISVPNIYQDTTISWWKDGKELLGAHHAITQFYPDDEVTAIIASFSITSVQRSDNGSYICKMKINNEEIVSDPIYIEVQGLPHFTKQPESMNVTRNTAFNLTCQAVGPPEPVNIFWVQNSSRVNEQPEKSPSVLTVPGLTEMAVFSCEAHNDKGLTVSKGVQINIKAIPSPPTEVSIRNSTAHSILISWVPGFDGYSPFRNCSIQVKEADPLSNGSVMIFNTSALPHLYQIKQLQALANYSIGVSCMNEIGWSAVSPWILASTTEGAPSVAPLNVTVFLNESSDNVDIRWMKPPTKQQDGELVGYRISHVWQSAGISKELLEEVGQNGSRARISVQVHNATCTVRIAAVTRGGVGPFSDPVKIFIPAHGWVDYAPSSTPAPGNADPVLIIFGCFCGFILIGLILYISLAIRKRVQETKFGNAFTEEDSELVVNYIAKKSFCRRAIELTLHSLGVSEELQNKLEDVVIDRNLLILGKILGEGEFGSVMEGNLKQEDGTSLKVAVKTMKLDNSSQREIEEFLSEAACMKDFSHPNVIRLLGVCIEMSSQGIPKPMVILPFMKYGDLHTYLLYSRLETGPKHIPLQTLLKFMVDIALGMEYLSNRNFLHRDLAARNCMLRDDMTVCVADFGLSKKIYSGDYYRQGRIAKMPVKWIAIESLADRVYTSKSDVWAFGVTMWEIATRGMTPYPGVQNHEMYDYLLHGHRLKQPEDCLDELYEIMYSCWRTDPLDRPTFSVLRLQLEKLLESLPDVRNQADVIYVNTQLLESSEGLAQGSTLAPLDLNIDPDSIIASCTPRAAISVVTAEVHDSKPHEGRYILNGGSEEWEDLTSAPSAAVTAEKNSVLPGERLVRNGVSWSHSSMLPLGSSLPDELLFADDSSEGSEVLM

As for `COc1nc2c(Oc3ccc(NC(=O)C4(C(=O)Nc5ccc(F)cc5)CC4)cc3C#N)ncnc2cc1OCCCN1CCOCC1` [Compound 75, 1-N′-[3-cyano-4-[6-methoxy-7-(3-morpholin-4-ylpropoxy)pyrido[3,2-d]pyrimidin-4-yl]oxyphenyl]-1-N-(4-fluorophenyl)cyclo-propane-1,1-dicarboxamide], the IC50 against AXL, at Mer, against KDR and on Met was 0.01 to 0.1 µM each time.
For the compound `COc1nc2c(Oc3c(F)cc(NC(=O)C4(C(=O)Nc5ccc(F)cc5)CC4)cc3F)ncnc2cc1OCCCN1CCOCC1` [Compound 76, 1-N′-[3,5-difluoro-4-[6-methoxy-7-(3-morpholin-4-ylpropoxy)pyrido[3,2-d]pyrimidin-4-yl]oxyphenyl]-1-N-(4-fluorophenyl)cyclo-propane-1,1-dicarboxamide], the IC50 is no more than 0.01 µM against AXL, no more than 0.01 µM against Mer, 0.01 to 0.1 µM on KDR and 0.01 to 0.1 µM at Met.
With `COCCOc1cc2ncnc(Oc3ccc(NC(=O)C4(C(=O)Nc5ccc(F)cc5)CC4)cc3F)c2nc1OC` [Compound 79, 1-N′-[3-fluoro-4-[6-methoxy-7-(2-methoxyethoxy)pyrido[3,2-d]pyrimidin-4-yl]oxy-phenyl]-1-N-(4-fluorophenyl)cyclopropane-1,1-dicarboxamide], the half-maximal inhibitory concentration (IC50) against AXL is no more than 0.01 µM; against Mer it was no more than 0.01 µM; on KDR, no more than 0.01 µM; on Met, 0.01 to 0.1 µM.
As to `COCCOc1cc2ncnc(Oc3ccc(NC(=O)C4(C(=O)Nc5ccc(F)cc5)CC4)cc3Cl)c2nc1OC` [Compound 80, 1-N′-[3-chloro-4-[6-methoxy-7-(2-methoxyethoxy)pyrido[3,2-d]pyrimidin-4-yl]oxy-phenyl]-1-N-(4-fluorophenyl)cyclo-propane-1,1-dicarboxamide], the IC50 was 0.01 to 0.1 µM on AXL, no more than 0.01 µM on Mer, no more than 0.01 µM against KDR and 0.01 to 0.1 µM at Met.
Consider `COCCOc1cc2ncnc(Oc3ccc(NC(=O)C4(C(=O)Nc5ccc(F)cc5)CC4)c(F)c3)c2nc1OC` [Compound 81, 1-N′-[2-fluoro-4-[6-methoxy-7-(2-methoxyethoxy)pyrido[3,2-d]pyrimidin-4-yl]oxy-phenyl]-1-N-(4-fluorophenyl)cyclopropane-1,1-dicarboxamide], for which the IC50 against AXL was no more than 0.01 µM; on Mer it was no more than 0.01 µM; on KDR it was 0.01 to 0.1 µM; on Met, 0.01 to 0.1 µM.
Turning to `COCCOc1cc2ncnc(Oc3ccc(NC(=O)C4(C(=O)Nc5ccc(F)cc5)CC4)c(F)c3F)c2nc1OC` [Compound 82, 1-N′-[2,3-difluoro-4-[6-methoxy-7-(2-methoxy-ethoxy)pyrido[3,2-d]pyrimidin-4-yl]oxyphenyl]-1-N-(4-fluorophenyl)cyclo-propane-1,1-dicarboxamide], the IC50 is no more than 0.01 µM on AXL, 0.01 to 0.1 µM against Mer, no more than 0.01 µM on KDR and 0.01 to 0.1 µM at Met.
In the case of `COCCOc1cc2ncnc(Oc3cc(F)c(NC(=O)C4(C(=O)Nc5ccc(F)cc5)CC4)cc3F)c2nc1OC` [Compound 83, 1-N′-[2,5-difluoro-4-[6-methoxy-7-(2-methoxy-ethoxy)pyrido[3,2-d]pyrimidin-4-yl]oxyphenyl]-1-N-(4-fluorophenyl)cyclopropane-1,1-dicarboxamide], the IC50 against AXL was no more than 0.01 µM; at Mer it was no more than 0.01 µM; on KDR, no more than 0.01 µM; at Met, 0.01 to 0.1 µM.
Regarding `Cn1cc(-c2cnc3c(Oc4ccc(NC(=O)C5(C(=O)Nc6ccc(F)cc6)CC5)cc4)ncnc3c2)cn1` [Compound 129, 1-N′-(4-fluorophenyl)-1-N-[4-[7-(1-methylpyrazol-4-yl)pyrido[3,2-d]pyrimidin-4-yl]oxyphenyl]cyclo-propane-1,1-dicarboxamide], the IC50 against AXL lay in the range of 0.01 to 0.1 µM; on Mer, 0.1 to 0.3 µM; on KDR, 0.1 to 0.3 µM; at Met, 0.1 to 0.3 µM.
For the compound `Cn1cc(-c2cc3ncnc(Oc4ccc(NC(=O)C5(C(=O)Nc6ccc(F)cc6)CC5)cc4)c3cn2)cn1` [Compound 130, 1-N′-(4-fluorophenyl)-1-N-[4-[7-(1-methylpyrazol-4-yl)pyrido[4,3-d]pyrimidin-4-yl]oxyphenyl]cyclopropane-1,1-dicarboxamide], the IC50 was 0.01 to 0.1 µM against AXL, 0.01 to 0.1 µM against Mer, no more than 0.01 µM against KDR and 0.01 to 0.1 µM at Met.
For `COCCOc1cc2nccc(Oc3ccc(NC(=O)C4(C(=O)Nc5ccc(F)cc5)CC4)cc3)c2nc1OC` [Compound 149, 1-N′-(4-fluorophenyl)-1-N-[4-[[6-methoxy-7-(2-methoxyethoxy)-1,5-naphthyridin-4-yl]oxy]phenyl]cyclopropane-1,1-dicarboxamide], the IC50 against AXL is no more than 0.01 µM; at Mer it was no more than 0.01 µM; against KDR it was no more than 0.01 µM; on Met, 0.01 to 0.1 µM.
Take `COCCOc1cc2nccc(Oc3ccc(NC(=O)C4(C(=O)Nc5ccc(F)cc5)CC4)cc3F)c2nc1OC` [Compound 150, 1-N′-[3-fluoro-4-[[6-methoxy-7-(2-methoxyethoxy)-1,5-naphthyridin-4-yl]oxy]phenyl]-1-N-(4-fluoro-phenyl)cyclopropane-1,1-dicarboxamide]: the IC50 against AXL, at Mer, against KDR and on Met was no more than 0.01 µM each time.
As for `COCCOc1cc2nccc(Oc3ccc(NC(=O)C4(C(=O)Nc5ccc(F)cc5)CC4)cc3Cl)c2nc1OC` [Compound 151, 1-N′-[3-chloro-4-[[6-methoxy-7-(2-methoxyethoxy)-1,5-naphthyridin-4-yl]oxy]phenyl]-1-N-(4-fluoro-phenyl)cyclopropane-1,1-dicarboxamide], the IC50 on AXL is 0.01 to 0.1 µM; against Mer it was 0.01 to 0.1 µM; at KDR, no more than 0.01 µM; on Met, 0.01 to 0.1 µM.
